System: strains of Enterobacteriaceae producing various carbapenemases (class A, D and B; 104 strains)
Assay: Antibiotics potentiation by Compound 27 (MIC; meropenem, doripenem, ertapenem, cefepime)
Assay type: cell-based
Conditions: + 27 = with Compound 27 at fixed 4 μg/ml

C[C@@H](O)[C@H]1C(=O)N2C(C(=O)O)=C(S[C@@H]3CN[C@H](CNS(N)(=O)=O)C3)[C@H](C)[C@H]12 [D]
MIC (strain KP1081 Klebsiella pneumoniae (NDM-1, TEM-1, SHV-11, CMY-6, CTX-M-15)): Z (MIC of greater than 10 μg/mL)
MIC (strain KP1082 Klebsiella pneumoniae (KPC-2, SHV-1)): Y (MIC of 1 μg/mL to 10 μg/mL)
MIC (strain KP1083 Klebsiella pneumoniae (KPC-3, SHV-1, TEM-1)): Y (MIC of 1 μg/mL to 10 μg/mL)
MIC (strain KP1084 Klebsiella pneumoniae (KPC-3, SHV-11, TEM-1)): Z (MIC of greater than 10 μg/mL)
MIC (strain KP1086 Klebsiella pneumoniae (OXA-48, CTX-M-15, TEM, SHV)): Z (MIC of greater than 10 μg/mL)
MIC (strain KP1087 Klebsiella pneumoniae (KPC-2, CTX-M-15, SHV-11, TEM-1)): Z (MIC of greater than 10 μg/mL)
MIC (strain KP1088 Klebsiella pneumoniae (KPC-3, SHV-11, TEM-1)): Y (MIC of 1 μg/mL to 10 μg/mL)
MIC (strain KP1089 Klebsiella pneumonias (OXA-181, CTX-M-15, TEM, SHV)): Y (MIC of 1 μg/mL to 10 μg/mL)
MIC (strain KP1095 Klebsiella pneumoniae (KPC-2 TEM-1 SHV-1)): Y (MIC of 1 μg/mL to 10 μg/mL)
MIC (strain KP1096 Klebsiella pneumoniae (KPC-2 TEM-181 SHV-11)): Y (MIC of 1 μg/mL to 10 μg/mL)
MIC (strain KP1097 Klebsiella pneumonias (IMP-1)): Z (MIC of greater than 10 μg/mL)
MIC (strain KP1098 Klebsiella pneumoniae (IMP-26)): Z (MIC of greater than 10 μg/mL)
MIC (strain KP1104 Klebsiella pneumoniae (KPC TEM)): Z (MIC of greater than 10 μg/mL)
MIC (strain KP1105 Klebsiella pneumoniae (KPC TEM SHV)): Y (MIC of 1 μg/mL to 10 μg/mL)
MIC (strain KP1159 Klebsiella pneumoniae (SHV-1(2b); CTX-M-15; IMP-4)): Z (MIC of greater than 10 μg/mL)
MIC (strain KP1160 Klebsiella pneumoniae (SHV-28(2be); CTX-M-15; IMP-26)): Z (MIC of greater than 10 μg/mL)
MIC (strain KP1161 Klebsiella pneumoniae (NDM-1)): Z (MIC of greater than 10 μg/mL)
MIC (strain KP1164 Klebsiella pneumoniae (SHV-12(2be); VIM-1)): Z (MIC of greater than 10 μg/mL)
MIC (strain KP1165 Klebsiella pneumoniae (SHV-11(2b); CTX-M-15; VIM-27)): Z (MIC of greater than 10 μg/mL)
MIC (strain KP1166 Klebsiella pneumoniae (SHV-5(2be); VIM-26)): Z (MIC of greater than 10 μg/mL)
MIC (strain KP1167 Klebsiella pneumoniae (SHV-12(2be); VIM-1)): X (MIC of less than 1 μg/mL)
MIC (strain KP1169 Klebsiella pneumoniae (SHV-11(2b); VIM-1)): Z (MIC of greater than 10 μg/mL)
MIC (strain KP1170 Klebsiella pneumoniae (SHV-11(2b); CTX-M-15; NDM-1)): Z (MIC of greater than 10 μg/mL)
MIC (strain KP1172 Klebsiella pneumoniae (SHV-31(2be); DHA-1; VIM-1)): Z (MIC of greater than 10 μg/mL)
MIC (strain KP1173 Klebsiella pneumoniae (TEM-33(2br); CTX-M-15; IMP-1)): Y (MIC of 1 μg/mL to 10 μg/mL)
MIC (strain KP1174 Klebsiella pneumoniae (CTX-M-14; IMP-1)): Z (MIC of greater than 10 μg/mL)
MIC (strain KP1175 Klebsiella pneumoniae (SHV-OSBL(2b); VIM-1)): Z (MIC of greater than 10 μg/mL)
MIC (strain KP1177 Klebsiella pneumoniae (SHV-OSBL(2b), TEM-OSBL(2b); CTX-M-15; NDM-1)): Z (MIC of greater than 10 μg/mL)
MIC (strain KP1178 Klebsiella pneumoniae (SHV-OSBL(2b;) TEM-OSBL(2b); CTX-M-15; NDM-1)): Z (MIC of greater than 10 μg/mL)
MIC (strain KP1179 Klebsiella pneumoniae (SHV-12(2be), TEM-OSBL(2b); CTX-M-15; NDM-7)): Z (MIC of greater than 10 μg/mL)
MIC (strain KP1180 Klebsiella pneumoniae (SHV-OSBL(2b), TEM-OSBL(2b); CTX-M-15; DHA-1; IMP-26)): Y (MIC of 1 μg/mL to 10 μg/mL)
MIC (strain KP1181 Klebsiella pneumoniae (SHV-OSBL(2b); CTX-M-15; IMP-26)): Y (MIC of 1 μg/mL to 10 μg/mL)
MIC (strain KP1183 Klebsiella pneumoniae (SHV-OSBL(2b), TEM-OSBL(2b); CTX-M-15; NDM-1)): Z (MIC of greater than 10 μg/mL)
MIC (strain KP1184 Klebsiella pneumoniae (SHV-OSBL(2b); IMP-1)): Y (MIC of 1 μg/mL to 10 μg/mL)
MIC (strain KP1185 Klebsiella pneumoniae (SHV-OSBL(2b), TEM-OSBL(2b); IMP-4)): Z (MIC of greater than 10 μg/mL)
MIC (strain KP1186 Klebsiella pneumoniae (CTX-M-15; NDM-1)): Z (MIC of greater than 10 μg/mL)
MIC (strain KP1187 Klebsiella pneumoniae (SHV-55(2be), TEM-OSBL(2b); CTX-M-15; NDM-1)): Z (MIC of greater than 10 μg/mL)
MIC (strain KP1188 Klebsiella pneumoniae (SHV-OSBL(2b); CTX-M-15; NDM-1)): Z (MIC of greater than 10 μg/mL)
MIC (strain KP1189 Klebsiella pneumoniae (TEM-OSBL(2b); CTX-M-15; CTX-M-27; NDM-1)): Z (MIC of greater than 10 μg/mL)
MIC (strain KPM1123 Klebsiella pneumoniae (KPC-2 TEM SHV)): Y (MIC of 1 μg/mL to 10 μg/mL)
MIC (strain KPM1202 Klebsiella pneumoniae (KPC SHV TEM)): Y (MIC of 1 μg/mL to 10 μg/mL)
MIC (strain KPM1203 Klebsiella pneumoniae (KPC SHV TEM)): Y (MIC of 1 μg/mL to 10 μg/mL)
MIC (strain KPM1344 Klebsiella pneumoniae (VIM-1)): Y (MIC of 1 μg/mL to 10 μg/mL)
MIC (strain KPM1345 Klebsiella pneumoniae (VIM-1 SHV)): Z (MIC of greater than 10 μg/mL)
MIC (strain KPM1347 Klebsiella pneumoniae (NDM-1 SHV CTX-M-15)): Z (MIC of greater than 10 μg/mL)
MIC (strain KX1017 Klebsiella oxytoca (KPC-2, OXA-2, SHV-30)): Y (MIC of 1 μg/mL to 10 μg/mL)
MIC (strain KX1018 Klebsiella oxytoca (KPC-2, SHV-40, OXY-1)): Y (MIC of 1 μg/mL to 10 μg/mL)
MIC (strain KX1019 Klebsiella oxytoca (KPC-2, OXA-2)): Y (MIC of 1 μg/mL to 10 μg/mL)
MIC (strain PM1024 Proteus mirabilis (TEM-1(2b); CMY-16; VIM-1)): Z (MIC of greater than 10 μg/mL)
MIC (strain PM1026 Proteus mirabilis (DHA-1; IMP-26)): Z (MIC of greater than 10 μg/mL)
MIC (strain PM1027 Proteus mirabilis (VIM-5)): Y (MIC of 1 μg/mL to 10 μg/mL)
MIC (strain SM1023 Serratia marcescens (VIM-4)): Z (MIC of greater than 10 μg/mL)

Reference: patent US10206937B2, “Boronic acid derivatives and therapeutic uses thereof” (Qpex Biopharma, Inc., priority 2014, dated 2019)
